# Measured values published in US9969724B2, “Factor IXa inhibitors” (Merck Sharp & Dohme Corp., priority 2014, dated 2018).
# Biological target: human factor IXa (Homo sapiens (Human), UniProt P00740)
# Experiment: Determination of Inhibitory Activity Against Factor IXa
# Format: biochemical
# Details: Factor IXa enzyme assay human; read-out: FIXa IC50
# Method: Inhibitory activity against factor IXa was tested using the substrate SPECTROFLUOR FIXa (american diagnostica inc.; 500 West Avenue, Stamford, Conn. 06902 USA; Pr. No. 299F) and human factor IXa (american diagnostica inc.; Pr. No. 449b). Test substances were dissolved in buffer A (50 mM α,α,α-tris(hydroxymethyl) methylamine (Tris), 100 mM NaCl, 5 mM CaCl2, 15% (v/v) ethylene glycol, pH 8.0) were mixed with factor IXa (0.1 μg/ml final concentration). The enzyme reaction was started by addition of SPECTROFLUOR FIXa (100 μM final concentration). After incubation for 60 minutes at room temperature, the reaction was stopped by the addition of 20% (v/v) acetic acid solution, and then the fluorescence value was measured (Excitation Wavelength: 355 nm, Emission Wavelength; 460 nm) in a microtiter plate reader (ARVO 1420 Multilabel Counter; PerkinElmer).
# The IC50 was calculated from a dilution series of the test substance with the aid of the software, Symyx Assay Explorer (Symyx Technologies, Inc.).
# Sequence of human factor IXa (P00740 227-461): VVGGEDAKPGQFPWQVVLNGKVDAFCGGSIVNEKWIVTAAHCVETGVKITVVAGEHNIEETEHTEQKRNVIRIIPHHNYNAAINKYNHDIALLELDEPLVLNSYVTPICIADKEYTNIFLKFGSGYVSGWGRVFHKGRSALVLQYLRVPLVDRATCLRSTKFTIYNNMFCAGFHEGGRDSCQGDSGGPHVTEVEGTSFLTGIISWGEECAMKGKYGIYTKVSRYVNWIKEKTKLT
# Sequence of human factor IXa (P00740 47-191 partner): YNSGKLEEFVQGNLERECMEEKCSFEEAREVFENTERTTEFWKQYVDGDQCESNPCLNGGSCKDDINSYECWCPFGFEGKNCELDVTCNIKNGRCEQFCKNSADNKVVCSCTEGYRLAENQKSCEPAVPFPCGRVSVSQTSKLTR
row,SMILES,IC50 [nM]
1,"Cn1cc(-c2ccc(C(=O)N[C@@H]3CCN(c4ncc(Cl)c5c(N)noc45)C3)c(Cl)c2)cnc1=O [Example 44, (R)—N-(1-(3-Amino-4-chloroisoxazolo[5,4-c]pyridin-7-yl)pyrrolidin-3-yl)-2-chloro-4-(1-methyl-2-oxo-1,2-dihydropyrimidin-5-yl)benzamide]",≤ 100
2,"Cn1ncn(-c2ccc(C(=O)N[C@@H]3CCN(c4ncc(Cl)c5c(N)noc45)C3)c(Cl)c2)c1=O [Example 45, (R)—N-(1-(3-Amino-4-chloroisoxazolo[5,4-c]pyridin-7-yl)pyrrolidin-3-yl)-2-chloro-4-(1-methyl-5-oxo-1,5-dihydro-4H-1,2,4-triazol-4-yl)benzamide]",≤ 100
3,"Nc1noc2c(N3CC[C@@H](NC(=O)c4ccc(-n5cn[nH]c5=O)cc4Cl)C3)ncc(Cl)c12 [Example 46, (R)—N-(1-(3-Amino-4-chloroisoxazolo[5,4-c]pyridin-7-yl)pyrrolidin-3-yl)-2-chloro-4-(5-oxo-1,5-dihydro-4H-1,2,4-triazol-4-yl)benzamide]",≤ 100
4,"Nc1noc2c(N3CC[C@@H](NC(=O)c4ccc(-n5cnn(CCO)c5=O)cc4Cl)C3)ncc(Cl)c12 [Example 47, (R)—N-(1-(3-Amino-4-chloroisoxazolo[5,4-c]pyridin-7-yl)pyrrolidin-3-yl)-2-chloro-4-(1-(2-hydroxyethyl)-5-oxo-1,5-dihydro-4H-1,2,4-triazol-4-yl)benzamide]",≤ 100
5,"Nc1noc2c(N3CC[C@@H](NC(=O)c4ccc(-n5cnc6cncnc65)cc4Cl)C3)ncc(Cl)c12 [Example 48, (R)—N-(1-(3-Amino-4-chloroisoxazolo[5,4-c]pyridin-7-yl)pyrrolidin-3-yl)-2-chloro-4-(9H-purin-9-yl)benzamide]",≤ 100
6,"Cc1cc2c(N)noc2c(N2CC[C@@H](NC(=O)c3c(Cl)cc(-n4cnn(C)c4=O)cc3Cl)C2)n1 [Example 49, (R)—N-(1-(3-Amino-5-methylisoxazolo[5,4-c]pyridin-7-yl)pyrrolidin-3-yl)-2,6-dichloro-4-(1-methyl-5-oxo-1,5-dihydro-4H-1,2,4-triazol-4-yl)benzamide]",≤ 100
7,"Nc1noc2c(N3CC[C@@H](NC(=O)c4ccc(-n5cnn(CC(F)(F)F)c5=O)cc4Cl)C3)ncc(Cl)c12 [Example 50, (R)—N-(1-(3-Amino-4-chloroisoxazolo[5,4-c]pyridin-7-yl)pyrrolidin-3-yl)-2-chloro-4-(5-oxo-1-(2,2,2-trifluoroethyl)-1,5-dihydro-4H-1,2,4-triazol-4-yl)benzamide]",≤ 100
8,"Nc1noc2c(N3CC[C@@H](NC(=O)c4ccc(-n5cnc6ncncc65)cc4Cl)C3)ncc(Cl)c12 [Example 51, (R)—N-(1-(3-Amino-4-chloroisoxazolo[5,4-c]pyridin-7-yl)pyrrolidin-3-yl)-2-chloro-4-(7H-purin-7-yl)benzamide]",≤ 100
9,"Cc1ncn(-c2cnc(C(=O)N[C@@H]3CCN(c4ncc(Cl)c5c(N)noc45)C3)c(Cl)c2)n1 [Example 52, (R)—N-(1-(3-Amino-4-chloroisoxazolo[5,4-c]pyridin-7-yl)pyrrolidin-3-yl)-3-chloro-5-(3-methyl-1H-1,2,4-triazol-1-yl)picolinamide]",100 to 1000
10,"Nc1noc2c(N3CC[C@@H](NC(=O)c4ccc(-c5ccnc(CO)c5)cc4Cl)C3)ccc(Cl)c12 [Example 53, (R)—N-(1-(3-Amino-4-chlorobenzo[d]isoxazol-7-yl)pyrrolidin-3-yl)-2-chloro-4-(2-(hydroxymethyl)pyridin-4-yl)benzamide]",≤ 100
